Columns and labels:
Test in all cases: relative viability (nuclei count vs DMSO), 5 days (fraction); higher = more cells survive
Linifanib = compound: Cc1ccc(F)c(NC(=O)Nc2ccc(-c3cccc4[nH]nc(N)c34)cc2)c1 [Linifanib]
How it was run: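 Viability was read as treated-well nuclei divided by vehicle-well nuclei, using the median across plates. Lung cancer cell lines in 1536-well plates were kept overnight at 37 °C, pinned with five √10-spaced library-drug doses, and after 5 days were Hoechst-stained, imaged at 4× and counted in MetaXpress. Plates passed only with control CV below 25% and at least one doubling.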

Linifanib + Palbociclib = compound: Cc1ccc(F)c(NC(=O)Nc2ccc(-c3cccc4[nH]nc(N)c34)cc2)c1 [Linifanib] + CC(=O)c1c(C)c2cnc(Nc3ccc(N4CCNCC4)cn3)nc2n(C2CCCC2)c1=O [Palbociclib] (partner 0.5 µM)
How it was run: (§1)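 Relative viability was taken as the ratio of nuclei in treated wells to nuclei in vehicle wells. Lung cancer cell lines in 1536-well plates received compounds by pin tool one day after seeding, either one drug alone or a fixed anchor-drug dose plus five library-drug doses (not always all listed) in √10 steps. Nuclei were counted on 4× images after 5 days of treatment, and values are medians of duplicate plates.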

Linifanib + Lapatinib = compound: Cc1ccc(F)c(NC(=O)Nc2ccc(-c3cccc4[nH]nc(N)c34)cc2)c1 [Linifanib] + CS(=O)(=O)CCNCc1ccc(-c2ccc3ncnc(Nc4ccc(OCc5cccc(F)c5)c(Cl)c4)c3c2)o1 [Lapatinib] (partner 2 µM)
How it was run: as §1

Linifanib + Pictilisib = compound: Cc1ccc(F)c(NC(=O)Nc2ccc(-c3cccc4[nH]nc(N)c34)cc2)c1 [Linifanib] + CS(=O)(=O)N1CCN(Cc2cc3nc(-c4cccc5[nH]ncc45)nc(N4CCOCC4)c3s2)CC1 [Pictilisib] (partner 1 µM)
How it was run: as §1

Linifanib + Tozasertib = compound: Cc1ccc(F)c(NC(=O)Nc2ccc(-c3cccc4[nH]nc(N)c34)cc2)c1 [Linifanib] + Cc1cc(Nc2cc(N3CCN(C)CC3)nc(Sc3ccc(NC(=O)C4CC4)cc3)n2)n[nH]1 [Tozasertib] (partner 0.1 µM)
How it was run: as §1

Linifanib + Dasatinib = compound: Cc1ccc(F)c(NC(=O)Nc2ccc(-c3cccc4[nH]nc(N)c34)cc2)c1 [Linifanib] + Cc1nc(Nc2ncc(C(=O)Nc3c(C)cccc3Cl)s2)cc(N2CCN(CCO)CC2)n1 [Dasatinib] (partner 0.075 µM)
How it was run: as §1

Cell Line | relative viability (Linifanib; 0.03162 µM) | relative viability (Linifanib; 0.1 µM) | relative viability (Linifanib; 0.3162 µM) | relative viability (Linifanib + Palbociclib; first compound 0.03162 µM) | relative viability (Linifanib + Palbociclib; first compound 0.1 µM) | relative viability (Linifanib + Palbociclib; first compound 0.3162 µM) | relative viability (Linifanib + Lapatinib; first compound 0.03162 µM) | relative viability (Linifanib + Lapatinib; first compound 0.1 µM) | relative viability (Linifanib + Lapatinib; first compound 0.3162 µM) | relative viability (Linifanib + Pictilisib; first compound 0.03162 µM) | relative viability (Linifanib + Pictilisib; first compound 0.1 µM) | relative viability (Linifanib + Pictilisib; first compound 0.3162 µM) | relative viability (Linifanib + Tozasertib; first compound 0.03162 µM) | relative viability (Linifanib + Tozasertib; first compound 0.1 µM) | relative viability (Linifanib + Tozasertib; first compound 0.3162 µM) | relative viability (Linifanib + Dasatinib; first compound 0.03162 µM) | relative viability (Linifanib + Dasatinib; first compound 0.1 µM) | relative viability (Linifanib + Dasatinib; first compound 0.3162 µM)
PC-14 | 0.999 | 1 | 0.904 | 0.444 | 0.584 | 0.463 | 0.32 | 0.436 | 0.305 | 0.617 | 0.823 | 0.682 | 0.499 | 0.502 | 0.552 | 0.259 | 0.262 | 0.266
RERF-LC-KJ | 1.04 | 0.989 | 0.96 | 1.07 | 1.1 | 1.05 | 0.885 | 0.891 | 0.868 | 0.564 | 0.6 | 0.484 | 0.46 | 0.531 | 0.578 | 0.836 | 0.983 | 0.937
SK-LU-1 | 1.07 | 1.11 | 1.01 | 0.359 | 0.449 | 0.366 | 0.84 | 1.12 | 0.738 | 0.529 | 0.602 | 0.542 | 0.317 | 0.331 | 0.323 | 0.205 | 0.196 | 0.193
SK-MES-1 | 0.969 | 1.08 | 0.965 | 0.323 | 0.331 | 0.336 | 0.456 | 0.534 | 0.384 | 0.369 | 0.338 | 0.398 | 0.882 | 1.06 | 0.819 | 0.336 | 0.455 | 0.388
SW 1573 | 0.98 | 1.08 | 0.963 | 0.367 | 0.448 | 0.366 | 1.27 | 1.27 | 1.15 | 0.43 | 0.517 | 0.417 | 0.195 | 0.193 | 0.189 | 0.578 | 0.931 | 0.539
UMC-11 | 0.979 | 1.02 | 0.878 | 0.342 | 0.309 | 0.335 | 1 | 1.1 | 1.06 | 0.859 | 0.865 | 0.819 | 0.214 | 0.201 | 0.222 | 0.42 | 0.491 | 0.466

Source: the supplement of paper PMC10307832
